# Experiments:
# [1] = Half life in dog at 3 mg/kg, iv; format: ADME, organism-based, Canis lupus familiaris; set-up: dose 3 mg/kg, route intravenous; details: in vivo
# [2] = target: Gamma-secretase; experiment: Modulation of gamma-secretase-mediated cleavage of human APP Swedish and London mutation expressed in HEK293 cells assessed as inhibition of amyloid beta42 production after 5 hrs by sandwich immunoassay; format: cell-based
# [3] = target: Gamma-secretase; experiment: Modulation of gamma-secretase-mediated cleavage of human APP Swedish and London mutation expressed in HEK293 cells assessed as reduction of total amyloid beta level after 5 hrs by sandwich immunoassay; format: cell-based
# [4] = target: T1, Nuclear receptor subfamily 1 group I member 2 (Homo sapiens, UniProt O75469); experiment: Induction of human PXR
# T1 sequence (O75469 whole entry): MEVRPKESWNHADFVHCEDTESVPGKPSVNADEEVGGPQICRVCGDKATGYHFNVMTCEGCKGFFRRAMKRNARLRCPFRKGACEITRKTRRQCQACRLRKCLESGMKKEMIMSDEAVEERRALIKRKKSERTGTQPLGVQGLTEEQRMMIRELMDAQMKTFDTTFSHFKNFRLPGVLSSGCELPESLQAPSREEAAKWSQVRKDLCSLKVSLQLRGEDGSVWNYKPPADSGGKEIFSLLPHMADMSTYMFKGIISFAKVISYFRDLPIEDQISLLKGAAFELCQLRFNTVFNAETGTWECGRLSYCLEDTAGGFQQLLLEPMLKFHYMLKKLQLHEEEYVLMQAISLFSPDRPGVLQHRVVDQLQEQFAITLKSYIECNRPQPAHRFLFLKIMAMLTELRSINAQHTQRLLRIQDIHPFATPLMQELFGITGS
# [5] = Drug level in rat brain at 10 mg/kg, po after 3 hrs; format: ADME, organism-based; set-up: dose 10 mg/kg, route oral; details: read-out: Drug uptake
# [6] = Oral bioavailability in monkey at 10 mg/kg; format: ADME, organism-based, Macaca mulatta; details: rhesus monkey, in vivo
# [7] = Efflux ratio of permeability from basolateral to apical side over apical to basolateral side in human Caco2 cells; format: ADME, cell-based; details: Caco-2
# [8] = Dissociation constant, pKa of the compound; format: physicochemical
# [9] = Permeability from apical to basolateral side of human Caco2 cells; format: ADME, cell-based; details: Caco-2, read-out: permeability
# [10] = tested on: Rattus norvegicus; experiment: Oral bioavailability in rat at 10 mg/kg; format: ADME, organism-based; details: in vivo
# [11] = tested on: Rattus norvegicus; experiment: Antialzheimer activity in po dosed rat assessed as reduction in amyloid beta42 level in CSF after 3 hrs; format: functional, organism-based
# [12] = tested on: Canis familiaris; experiment: Oral bioavailability in dog at 10 mg/kg; format: ADME, organism-based, Canis lupus familiaris; details: in vivo
# [13] = Clearance in monkey at 3 mg/kg, iv; format: ADME, organism-based, Macaca mulatta; set-up: dose 3 mg/kg, route intravenous; details: rhesus monkey, in vivo
# [14] = target: Cytochrome P450 3A4 (Homo sapiens, UniProt P08684); experiment: Inhibition of human CYP3A4; format: ADME
# [15] = Cmax in dog at 10 mg/kg, po; format: ADME, organism-based, Canis lupus familiaris; set-up: dose 10 mg/kg, route oral; details: in vivo
# [16] = Half life in rat at 3 mg/kg, iv; format: ADME, organism-based; set-up: dose 3 mg/kg, route intravenous; details: in vivo
# [17] = tested on: Rattus norvegicus; experiment: AUC in rat at 10 mg/kg, po; format: ADME, organism-based, Plasma; set-up: dose 10 mg/kg, route oral; details: in vivo
# [18] = target: Voltage-gated inwardly rectifying potassium channel KCNH2 (Homo sapiens, UniProt Q12809); experiment: Inhibition of human ERG by cell based voltage clamp assay
# [19] = Half life in monkey at 3 mg/kg, iv; format: ADME, organism-based, Macaca mulatta; set-up: dose 3 mg/kg, route intravenous; details: rhesus monkey, in vivo
# [20] = organism: Canis familiaris; experiment: Cardiotoxicity in dog assessed as effect on electrocardiographic QTc interval at compound concentration required for pharmacological effect; format: toxicity, organism-based, Canis lupus familiaris; details: in vivo
# [21] = target: Cytochrome P450 2C9 (Homo sapiens, UniProt P11712); experiment: Inhibition of human CYP2C9; format: ADME
# [22] = Volume of distribution at steady state in rat at 3 mg/kg, iv; format: ADME, organism-based; set-up: dose 3 mg/kg, route intravenous; details: in vivo, read-out: Vdss
# [23] = target: Gamma-secretase; experiment: Modulation of gamma-secretase-mediated cleavage of human APP Swedish and London mutation expressed in HEK293 cells assessed as inhibition of amyloid beta40 production after 5 hrs by sandwich immunoassay; format: cell-based
# [24] = Drug level in rat brain at 3 mg/kg, po after 3 hrs; format: ADME, organism-based; set-up: dose 3 mg/kg, route oral; details: read-out: Drug uptake
# [25] = target: Gamma-secretase (Homo sapiens) (UniProt Q96BI3+Q9NZ42+Q8WW43+P49768+Q92542+P49810); experiment: Modulation of gamma-secretase-mediated cleavage of human APP Swedish and London mutation expressed in HEK293 cells assessed as reduction of total amyloid beta/amyloid beta42 ratio after 5 hrs by sandwich immunoassay; format: cell-based
# [26] = target: Cytochrome P450 2D6 (Homo sapiens, UniProt P10635); experiment: Inhibition of human CYP2D6; format: ADME
# [27] = AUC in monkey at 10 mg/kg, po; format: ADME, organism-based, Macaca mulatta; set-up: dose 10 mg/kg, route oral; details: rhesus monkey, plasma
# [28] = tested on: Rattus norvegicus; experiment: Antialzheimer activity in rat assessed as reduction in amyloid beta42 level in CSF at 3 mg/kg, po after 3 hrs; format: functional; set-up: scale not given: the % may be the effect or the level left
# [29] = Cmax in monkey at 10 mg/kg, po; format: ADME, organism-based, Macaca mulatta; set-up: dose 10 mg/kg, route oral; details: rhesus monkey, in vivo
# [30] = organism: Homo sapiens; experiment: Cardiotoxicity in human assessed as QT prolongation; format: toxicity, organism-based; details: in vivo
# [31] = tested on: Rattus norvegicus; experiment: Antialzheimer activity in rat assessed as reduction in amyloid beta42 level in CSF at 10 mg/kg, po after 3 hrs; format: functional; set-up: scale not given: the % may be the effect or the level left
# [32] = Cmax in rat at 10 mg/kg, po; format: ADME, organism-based; set-up: dose 10 mg/kg, route oral; details: in vivo
# [33] = Volume of distribution at steady state in monkey at 3 mg/kg, iv; format: ADME, organism-based, Macaca mulatta; set-up: dose 3 mg/kg, route intravenous; details: rhesus monkey, in vivo, read-out: Vdss
# [34] = tested on: Canis familiaris; experiment: AUC in dog at 10 mg/kg, po; format: ADME, organism-based, Canis lupus familiaris, Plasma; set-up: dose 10 mg/kg, route oral; details: in vivo
# [35] = Volume of distribution at steady state in dog at 3 mg/kg, iv; format: ADME, organism-based, Canis lupus familiaris; set-up: dose 3 mg/kg, route intravenous; details: in vivo, read-out: Vdss
# Chain of Voltage-gated inwardly rectifying potassium channel KCNH2 (Q12809 whole entry): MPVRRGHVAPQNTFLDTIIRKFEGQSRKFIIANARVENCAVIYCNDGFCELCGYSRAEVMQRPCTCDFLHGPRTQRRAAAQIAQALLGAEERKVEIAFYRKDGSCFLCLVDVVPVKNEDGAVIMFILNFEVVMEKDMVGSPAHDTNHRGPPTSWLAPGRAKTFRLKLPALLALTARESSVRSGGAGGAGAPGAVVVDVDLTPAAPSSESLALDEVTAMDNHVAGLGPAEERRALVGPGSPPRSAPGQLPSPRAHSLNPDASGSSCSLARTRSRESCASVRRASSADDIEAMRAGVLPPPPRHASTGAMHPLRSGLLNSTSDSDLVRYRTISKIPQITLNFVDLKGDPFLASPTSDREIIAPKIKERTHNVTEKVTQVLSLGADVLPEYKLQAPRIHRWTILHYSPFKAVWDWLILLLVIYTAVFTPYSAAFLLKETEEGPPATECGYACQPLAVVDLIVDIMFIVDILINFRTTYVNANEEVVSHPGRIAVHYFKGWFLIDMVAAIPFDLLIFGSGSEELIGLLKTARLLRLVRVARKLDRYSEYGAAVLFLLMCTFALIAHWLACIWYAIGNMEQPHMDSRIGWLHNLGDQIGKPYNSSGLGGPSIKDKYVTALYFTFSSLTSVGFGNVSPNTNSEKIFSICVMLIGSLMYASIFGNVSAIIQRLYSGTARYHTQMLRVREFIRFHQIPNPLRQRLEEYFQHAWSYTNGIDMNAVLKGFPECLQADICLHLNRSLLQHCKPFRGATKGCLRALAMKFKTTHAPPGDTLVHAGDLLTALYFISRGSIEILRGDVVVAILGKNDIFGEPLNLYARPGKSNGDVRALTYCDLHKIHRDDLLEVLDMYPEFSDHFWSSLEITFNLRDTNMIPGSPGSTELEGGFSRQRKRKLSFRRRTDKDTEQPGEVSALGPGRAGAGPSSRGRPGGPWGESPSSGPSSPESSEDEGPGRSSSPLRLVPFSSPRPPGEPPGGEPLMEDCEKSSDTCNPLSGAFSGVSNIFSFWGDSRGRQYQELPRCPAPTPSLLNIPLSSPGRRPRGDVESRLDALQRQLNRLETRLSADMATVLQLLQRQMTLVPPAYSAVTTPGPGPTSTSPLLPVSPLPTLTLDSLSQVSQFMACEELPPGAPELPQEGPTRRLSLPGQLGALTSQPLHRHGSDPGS
# Chain of Cytochrome P450 2C9 (P11712 whole entry): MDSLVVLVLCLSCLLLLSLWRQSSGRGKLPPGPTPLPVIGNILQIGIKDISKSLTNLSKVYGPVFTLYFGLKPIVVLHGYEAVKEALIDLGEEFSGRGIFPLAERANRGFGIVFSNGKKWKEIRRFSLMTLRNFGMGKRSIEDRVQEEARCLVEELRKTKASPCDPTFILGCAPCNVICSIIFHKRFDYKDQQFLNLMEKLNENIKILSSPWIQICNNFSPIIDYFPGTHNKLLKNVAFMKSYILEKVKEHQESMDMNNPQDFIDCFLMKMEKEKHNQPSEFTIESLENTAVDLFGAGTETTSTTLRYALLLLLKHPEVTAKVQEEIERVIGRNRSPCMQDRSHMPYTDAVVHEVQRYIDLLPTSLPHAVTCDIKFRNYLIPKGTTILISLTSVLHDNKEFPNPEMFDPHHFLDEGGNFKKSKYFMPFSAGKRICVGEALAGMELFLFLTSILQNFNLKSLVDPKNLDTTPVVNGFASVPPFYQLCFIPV
# Chain of Cytochrome P450 2D6 (P10635 whole entry): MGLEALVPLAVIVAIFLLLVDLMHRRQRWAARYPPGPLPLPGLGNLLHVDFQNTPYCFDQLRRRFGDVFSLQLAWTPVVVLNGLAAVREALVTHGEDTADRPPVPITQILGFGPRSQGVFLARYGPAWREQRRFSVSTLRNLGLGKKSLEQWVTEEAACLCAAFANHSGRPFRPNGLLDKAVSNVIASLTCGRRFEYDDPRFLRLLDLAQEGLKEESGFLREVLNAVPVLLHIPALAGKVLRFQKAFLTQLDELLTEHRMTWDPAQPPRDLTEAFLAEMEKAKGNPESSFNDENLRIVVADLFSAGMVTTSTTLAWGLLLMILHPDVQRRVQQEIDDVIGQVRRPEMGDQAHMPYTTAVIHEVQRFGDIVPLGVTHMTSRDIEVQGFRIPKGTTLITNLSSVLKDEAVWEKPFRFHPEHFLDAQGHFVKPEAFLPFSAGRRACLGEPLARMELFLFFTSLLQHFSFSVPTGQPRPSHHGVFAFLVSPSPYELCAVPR
# Chain of Cytochrome P450 3A4 (P08684 whole entry): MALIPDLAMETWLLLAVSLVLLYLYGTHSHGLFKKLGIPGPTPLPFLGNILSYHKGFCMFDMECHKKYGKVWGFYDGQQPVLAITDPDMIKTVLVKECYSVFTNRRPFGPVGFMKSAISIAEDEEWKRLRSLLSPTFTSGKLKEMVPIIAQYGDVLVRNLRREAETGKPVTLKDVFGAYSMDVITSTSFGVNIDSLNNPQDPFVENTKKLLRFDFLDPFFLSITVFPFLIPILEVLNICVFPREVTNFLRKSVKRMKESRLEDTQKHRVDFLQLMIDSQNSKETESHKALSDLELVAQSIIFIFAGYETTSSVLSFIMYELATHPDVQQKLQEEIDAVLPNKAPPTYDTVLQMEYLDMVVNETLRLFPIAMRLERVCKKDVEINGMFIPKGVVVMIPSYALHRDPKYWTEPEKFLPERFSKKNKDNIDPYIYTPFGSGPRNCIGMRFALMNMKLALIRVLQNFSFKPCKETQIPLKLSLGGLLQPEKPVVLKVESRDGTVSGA
structure (smiles),measurement,setting,value
"COc1cc(/C=C2\CCCN3C2=NOC3(C)c2ccc(F)cc2)ccc1-n1cnc(C)c1 (single isomer, unassigned)",half-life,[1],1.7 h
same,IC50,[2],58 nM
same,IC50,[3],13700 nM
same,Activity,[4],Not Active
same,concentration at 3 h,[5],5 µM
same,bioavailability,[6],57%
same,efflux ratio,[7],0.6
same,pKa,[8],6.7
same,Papp A→B,[9],34.6 ×10⁻⁶ cm/s
same,F,[10],78%
same,Activity,[11],Dose-dependent effect
same,F,[12],69%
same,clearance,[13],7.3 mL/min/kg
same,inhibition (INH),[14],Not Active
same,Cmax,[15],5.3 µM
same,half-life,[16],2.5 h
same,AUC,[17],19 µM·h
same,IC50,[18],740 nM
same,half-life,[19],2 h
same,Activity,[20],Non-toxic
same,inhibition (INH),[21],Not Active
same,Vd,[22],1.6 L/kg
same,IC50,[23],267 nM
same,concentration at 3 h,[24],0.8 µM
same,Ratio IC50,[25],237
same,inhibition (INH),[26],Not Active
same,AUC,[27],30 µM·h
same,Activity,[28],30%
same,Cmax,[29],5.6 µM
same,Activity,[30],Toxic
same,Activity,[31],51%
same,Cmax,[32],4.9 µM
same,Vd,[33],1 L/kg
same,AUC,[34],27 µM·h
same,Vd,[35],2.2 L/kg
